The structures appear in SMILES notation.

The target in this experiment is T1, mutant CFTR (Homo sapiens, UniProt P13569, DEL508-508).
T1 construct: expressed in transfected cells
Kind of experiment: Fluorescence (HS-YFP) assay for CFTR activity, corrector assay. The format is cell-based. To be noted: CFBE41o- and FRT cells with stable expression of mutant CFTR, 24 h compound treatment. An outline of the steps:
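CFBE41o- or FRT cells stably expressing mutant CFTR and HS-YFP were exposed to compounds for 24 h (corrector mode), then stimulated 30 min at 37° C with forskolin (20 μM) plus genistein (50 μM). YFP quenching after 100 mM iodide injection; initial slope from exponential fit of final 10 s; EC50 reported.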

T1 sequence (P13569 with tags, fused parts or gaps DEL508-508): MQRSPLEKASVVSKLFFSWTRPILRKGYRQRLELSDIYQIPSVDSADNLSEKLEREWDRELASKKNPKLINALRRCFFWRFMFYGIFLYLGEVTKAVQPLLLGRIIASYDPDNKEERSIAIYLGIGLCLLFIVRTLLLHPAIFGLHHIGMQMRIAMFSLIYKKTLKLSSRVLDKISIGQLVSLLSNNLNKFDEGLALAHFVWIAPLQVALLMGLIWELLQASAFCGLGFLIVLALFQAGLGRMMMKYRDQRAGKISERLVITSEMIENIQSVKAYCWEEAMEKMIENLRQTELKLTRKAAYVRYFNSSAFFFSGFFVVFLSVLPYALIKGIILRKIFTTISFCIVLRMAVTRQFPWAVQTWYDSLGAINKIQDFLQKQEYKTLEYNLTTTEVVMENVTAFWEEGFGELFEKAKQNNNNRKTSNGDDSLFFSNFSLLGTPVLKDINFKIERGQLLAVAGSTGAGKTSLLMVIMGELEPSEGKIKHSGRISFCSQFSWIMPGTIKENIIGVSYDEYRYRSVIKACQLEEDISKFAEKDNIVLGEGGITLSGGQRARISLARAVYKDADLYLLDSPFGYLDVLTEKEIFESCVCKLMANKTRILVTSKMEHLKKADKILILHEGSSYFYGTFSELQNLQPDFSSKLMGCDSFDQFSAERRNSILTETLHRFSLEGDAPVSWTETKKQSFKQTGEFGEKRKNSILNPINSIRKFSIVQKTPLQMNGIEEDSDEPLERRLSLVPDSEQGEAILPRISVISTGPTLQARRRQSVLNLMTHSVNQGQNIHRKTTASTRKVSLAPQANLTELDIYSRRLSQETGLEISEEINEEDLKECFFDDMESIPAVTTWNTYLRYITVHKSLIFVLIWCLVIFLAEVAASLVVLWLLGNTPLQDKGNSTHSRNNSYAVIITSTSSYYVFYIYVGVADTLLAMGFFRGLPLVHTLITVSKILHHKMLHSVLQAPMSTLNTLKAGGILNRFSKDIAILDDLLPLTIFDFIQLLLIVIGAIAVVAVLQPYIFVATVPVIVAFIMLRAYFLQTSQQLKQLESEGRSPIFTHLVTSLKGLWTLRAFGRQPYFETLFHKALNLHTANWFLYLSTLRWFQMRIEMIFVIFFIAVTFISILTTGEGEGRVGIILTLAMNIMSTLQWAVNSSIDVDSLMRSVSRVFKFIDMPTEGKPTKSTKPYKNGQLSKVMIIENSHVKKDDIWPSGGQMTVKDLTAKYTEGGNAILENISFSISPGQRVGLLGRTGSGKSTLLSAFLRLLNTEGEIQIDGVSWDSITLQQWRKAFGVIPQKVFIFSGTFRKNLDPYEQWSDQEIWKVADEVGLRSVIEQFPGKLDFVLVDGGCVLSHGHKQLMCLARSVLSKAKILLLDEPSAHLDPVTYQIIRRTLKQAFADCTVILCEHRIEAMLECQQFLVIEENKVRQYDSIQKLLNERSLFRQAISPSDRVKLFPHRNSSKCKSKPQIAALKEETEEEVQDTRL

Consider `CN(C(=O)c1cccc(-n2nc(C(F)(F)F)c(C#N)c2Oc2ccccc2)c1)c1ccc2c(c1)OCO2` [compound 185, N-(1,3-Benzodioxol-5-yl)-3-[4-cyano-5-phenoxy-3-(trifluoromethyl)pyrazol-1-yl]-N-methyl-benzamide], for which the 50% effective concentration (EC50) is under 1000 nM.

Take `Cc1c(C=O)c(C(F)(F)F)nn1-c1cccc(C(=O)N(C)c2ccc3c(c2)OCO3)c1` [compound 186, N-(1,3-Benzodioxol-5-yl)-3-[4-formyl-5-methyl-3-(trifluoromethyl)pyrazol-1-yl]-N-methyl-benzamide]: the concentration for a half-maximal effect (EC50) is under 1000 nM.

As for `Cc1c(C#N)c(C(F)(F)F)nn1-c1cccc(C(=O)N(C)c2ccc3c(c2)OCO3)c1` [compound 187, N-(1,3-Benzodioxol-5-yl)-3-[4-cyano-5-methyl-3-(trifluoromethyl)pyrazol-1-yl]-N-methyl-benzamide], the EC50 is under 1000 nM.

`Cc1nc2ccc(N(C)C(=O)c3cccc(-n4nc(C(F)(F)F)cc4OCc4ccc(C(=O)OC(C)(C)C)cc4)c3)cc2o1` [compound 188, Tert-butyl 4-[[2-[3-[methyl-(2-methyl-1,3-benzoxazol-6-yl)carbamoyl]phenyl]-5-(trifluoromethyl)pyrazol-3-yl]oxymethyl]benzoate]: the EC50 was under 1000 nM.

Consider `Cc1nc2cc(F)c(N(C)C(=O)c3cccc(-n4nc(C(F)(F)F)cc4OCc4ccc(C(=O)OC(C)(C)C)cc4)c3)cc2o1` [compound 189, Tert-butyl 4-[[2-[3-[(5-fluoro-2-methyl-1,3-benzoxazol-6-yl)-methyl-carbamoyl]phenyl]-5-(trifluoromethyl)pyrazol-3-yl]oxymethyl]benzoate], for which the concentration giving a half-maximal response (EC50) is under 1000 nM.

`Cc1nc2ccc(N(C)C(=O)c3cccc(-n4nc(C(F)(F)F)c(Cl)c4OCc4ccc(C(=O)OC(C)(C)C)cc4)c3)cc2o1` [compound 190, Tert-butyl 4-[[4-chloro-2-[3-[methyl-(2-methyl-1,3-benzoxazol-6-yl)carbamoyl]phenyl]-5-(trifluoromethyl)pyrazol-3-yl]oxymethyl]benzoate]: the EC50 was under 1000 nM.

In the case of `CN(C(=O)c1cccc(-n2nc(C(F)(F)F)cc2OCc2ccc(C(=O)OC(C)(C)C)cc2)c1)c1ccc2c(c1)OC(F)(F)O2` [compound 191, Tert-butyl 4-[[2-[3-[(2,2-difluoro-1,3-benzodioxol-5-yl)-methyl-carbamoyl]phenyl]-5-(trifluoromethyl)pyrazol-3-yl]oxymethyl]benzoate], the concentration giving a half-maximal response (EC50) is under 1000 nM.

On to `CN(C(=O)c1cccc(-n2nc(-c3ccccn3)cc2C(F)(F)F)c1)c1ccc2c(c1)OCO2` [compound 192, N-(1,3-benzodioxol-5-yl)-N-methyl-3-[3-(2-pyridyl)-5-(trifluoromethyl)pyrazol-1-yl]benzamide], for which the EC50 is 1000 to 2000 nM.

For the compound `CN(C(=O)c1cccc(-n2nc(C(F)(F)F)cc2-c2cccnc2)c1)c1ccc2c(c1)OCO2` [compound 193, N-(1,3-Benzodioxol-5-yl)-N-methyl-3-[5-(3-pyridyl)-3-(trifluoromethyl)pyrazol-1-yl]benzamide], the EC50 is under 1000 nM.

As to `CN(C(=O)c1cccc(-n2nc(-c3cccnc3)cc2C(F)(F)F)c1)c1ccc2c(c1)OCO2` [compound 194, N-(1,3-Benzodioxol-5-yl)-N-methyl-3-[3-(3-pyridyl)-5-(trifluoromethyl)pyrazol-1-yl]benzamide], the EC50 lay in the range of 1000 to 2000 nM.

Turning to `Cc1nc2ccc(N(C)C(=O)c3cccc(-n4nc(C(F)(F)F)cc4OCc4ccc(C(=O)O)cc4)c3)cc2o1` [compound 195, 4-[[2-[3-[Methyl-(2-methyl-1,3-benzoxazol-6-yl)carbamoyl]phenyl]-5-(trifluoromethyl)pyrazol-3-yl]oxymethyl]benzoic acid], the EC50 was under 1000 nM.

With `Cc1nc2cc(F)c(N(C)C(=O)c3cccc(-n4nc(C(F)(F)F)cc4OCc4ccc(C(=O)O)cc4)c3)cc2o1` [compound 196, 4-[[2-[3-[(5-Fluoro-2-methyl-1,3-benzoxazol-6-yl)-methyl-carbamoyl]phenyl]-5-(trifluoromethyl)pyrazol-3-yl]oxymethyl]benzoic acid], the EC50 is under 1000 nM.

For the compound `CN(C(=O)c1cccc(-n2nc(C(F)(F)F)cc2OCc2ccc(C(=O)O)cc2)c1)c1ccc2c(c1)OC(F)(F)O2` [compound 197, 4-[[2-[3-[(2,2-difluoro-1,3-benzodioxol-5-yl)-methyl-carbamoyl]phenyl]-5-(trifluoromethyl)pyrazol-3-yl]oxymethyl]benzoic acid], the EC50 was under 1000 nM.

Consider `Cc1nc2ccc(N(C)C(=O)c3cccc(-n4nc(C(F)(F)F)c(Cl)c4OCc4ccc(C(=O)O)cc4)c3)cc2o1` [compound 198, 4-[[4-Chloro-2-[3-[methyl-(2-methyl-1,3-benzoxazol-6-yl)carbamoyl]phenyl]-5-(trifluoromethyl)pyrazol-3-yl]oxymethyl]benzoic acid], for which the EC50 was under 1000 nM.

As to `CN(C(=O)c1cccc(-n2nc(C(F)(F)F)c(C#N)c2Oc2ccc(C(=O)OC(C)(C)C)cc2)c1)c1ccc2c(c1)OCO2` [compound 200, Tert-butyl 4-[2-[3-[1,3-benzodioxol-5-yl (methyl)carbamoyl]phenyl]-4-cyano-5-(trifluoromethyl)pyrazol-3-yl]oxybenzoate], the concentration for a half-maximal effect (EC50) was under 1000 nM.

Turning to `CN(C(=O)c1cccc(-n2nc(C(F)(F)F)c(Cl)c2OCc2ccc(C(=O)OC(C)(C)C)cc2)c1)c1ccc2c(c1)OC(F)(F)O2` [compound 201, Tert-butyl 4-[[4-chloro-2-[3-[(2,2-difluoro-1,3-benzodioxol-5-yl)-methyl-carbamoyl]phenyl]-5-(trifluoromethyl)pyrazol-3-yl]oxymethyl]benzoate], the EC50 is under 1000 nM.

On to `Cc1nc2cc(F)c(N(C)C(=O)c3cccc(-n4nc(C(F)(F)F)c(Cl)c4OCc4ccc(C(=O)OC(C)(C)C)cc4)c3)cc2o1` [compound 202, Tert-butyl 4-[[4-chloro-2-[3-[(5-fluoro-2-methyl-1,3-benzoxazol-6-yl)-methyl-carbamoyl]phenyl]-5-(trifluoromethyl)pyrazol-3-yl]oxymethyl]benzoate], for which the EC50 was under 1000 nM.

As to `Cc1cc(C(F)(F)F)nn1-c1cccc(S(=O)(=O)N(C)c2ccc3c(c2)OCO3)c1` [compound 204, N-(1,3-Benzodioxol-5-yl)-N-methyl-3-[5-methyl-3-(trifluoromethyl)pyrazol-1-yl]benzenesulfonamide], the EC50 fell in the range of 1000 to 2000 nM.

`Cc1c(Cl)c(C(F)(F)F)nn1-c1cccc(C(=O)Nc2ccc3c(c2C(=O)O)OCO3)c1` [compound 205, 5-[[3-[4-chloro-5-methyl-3-(trifluoromethyl)pyrazol-1-yl]benzoyl]amino]-1,3-benzodioxole-4-carboxylic acid]: the 50% effective concentration (EC50) is over 2000 nM.

As for `Cc1c(Cl)c(C(F)(F)F)nn1-c1cccc(C(=O)Nc2ccc3c(c2CO)OCO3)c1` [compound 206, 3-[4-chloro-5-methyl-3-(trifluoromethyl)pyrazol-1-yl]-N-[4-(hydroxymethyl)-1,3-benzodioxol-5-yl]benzamide], the EC50 is over 2000 nM.

In the case of `Cc1c(Cl)c(C(F)(F)F)nn1-c1cccc(C(=O)N(C)c2ccc3c(c2C=O)OCO3)c1` [compound 207, 3-[4-chloro-5-methyl-3-(trifluoromethyl)pyrazol-1-yl]-N-(4-formyl-1,3-benzodioxol-5-yl)-N-methyl-benzamide], the EC50 was over 2000 nM.

For `Cc1c(Cl)c(C(F)(F)F)nn1-c1cccc(C(=O)N(C)c2ccc3c(c2C(=O)O)OCO3)c1` [compound 208, 5-[[3-[4-chloro-5-methyl-3-(trifluoromethyl)pyrazol-1-yl]benzoyl]-methyl-amino]-1,3-benzodioxole-4-carboxylic acid], the EC50 was over 2000 nM.

For `Cc1c(Cl)c(C(F)(F)F)nn1-c1cccc(C(=O)N(C)c2ccc3c(c2CO)OCO3)c1` [compound 209, 3-[4-chloro-5-methyl-3-(trifluoromethyl)pyrazol-1-yl]-N-[4-(hydroxymethyl)-1,3-benzodioxol-5-yl]-N-methyl-benzamide], the EC50 was over 2000 nM.

For the compound `CN(C(=O)c1cccc(-n2nc(C(F)(F)F)c(C#N)c2Oc2ccc(C(=O)O)cc2)c1)c1ccc2c(c1)OCO2` [compound 210, 4-[2-[3-[1,3-Benzodioxol-5-yl(methyl)carbamoyl]phenyl]-4-cyano-5-(trifluoromethyl)pyrazol-3-yl]oxybenzoic acid], the 50% effective concentration (EC50) is over 2000 nM.

On to `CN(C(=O)c1cccc(-n2nc(C(F)(F)F)c(Cl)c2OCc2ccc(C(=O)O)cc2)c1)c1ccc2c(c1)OC(F)(F)O2` [compound 211, 4-[[4-Chloro-2-[3-[(2,2-difluoro-1,3-benzodioxol-5-yl)-methyl-carbamoyl]phenyl]-5-(trifluoromethyl)pyrazol-3-yl]oxymethyl]benzoic acid], for which the EC50 was under 1000 nM.

As to `Cc1nc2cc(F)c(N(C)C(=O)c3cccc(-n4nc(C(F)(F)F)c(Cl)c4OCc4ccc(C(=O)O)cc4)c3)cc2o1` [compound 212, 4-[[4-Chloro-2-[3-[(5-fluoro-2-methyl-1,3-benzoxazol-6-yl)-methyl-carbamoyl]phenyl]-5-(trifluoromethyl)pyrazol-3-yl]oxymethyl]benzoic acid], the half-maximal effective concentration (EC50) was under 1000 nM.

Turning to `CN(C(=O)c1cccc(-n2nc(C(F)(F)F)cc2O[C@H]2CC[C@@H](C(=O)O)CC2)c1)c1ccc2c(c1)OCO2` [compound 216, Cis-4-[2-[3-[1,3-benzodioxol-5-yl(methyl)carbamoyl]phenyl]-5-(trifluoromethyl)pyrazol-3-yl]oxycyclohexane carboxylic acid], the EC50 is under 1000 nM.

Consider `CN(C(=O)c1cccc(-n2nc(C(F)(F)F)c(Cl)c2CO)c1)c1ccc2c(c1)OC(F)(F)O2` [compound 217, 3-[4-Chloro-5-(hydroxymethyl)-3-(trifluoromethyl)pyrazol-1-yl]-N-(2,2-difluoro-1,3-benzodioxol-5-yl)-N-methyl-benzamide], for which the EC50 was under 1000 nM.
